Experimental data from patent US8242118B2, “Arylsulfonamide derivatives for use as CCR3 antagonists in the treatment of inflammatory and immunological disorders” (Axikin Pharmaceuticals Inc., priority 2001, dated 2012).
Structures can show the parent of a compound that is named as a salt.

Key:
Human CCR3 [1] = biological target: T1, Human CCR3 (Homo sapiens, UniProt P51677); experiment: Receptor binding assay (RBA), [125I]-eotaxin; details: human CCR3-transformed K562 cells, 0.1 nM [125I]-eotaxin; compounds of about 40 to 90% purity; read-out: Activity grade RBA (IC50 class)
T1 construct: The cloned CCR3 cDNA was constructed with pcDNA3 vector and transfected into a IC562 cell line; expressed in transfected cells
T1 sequence (P51677 1-355): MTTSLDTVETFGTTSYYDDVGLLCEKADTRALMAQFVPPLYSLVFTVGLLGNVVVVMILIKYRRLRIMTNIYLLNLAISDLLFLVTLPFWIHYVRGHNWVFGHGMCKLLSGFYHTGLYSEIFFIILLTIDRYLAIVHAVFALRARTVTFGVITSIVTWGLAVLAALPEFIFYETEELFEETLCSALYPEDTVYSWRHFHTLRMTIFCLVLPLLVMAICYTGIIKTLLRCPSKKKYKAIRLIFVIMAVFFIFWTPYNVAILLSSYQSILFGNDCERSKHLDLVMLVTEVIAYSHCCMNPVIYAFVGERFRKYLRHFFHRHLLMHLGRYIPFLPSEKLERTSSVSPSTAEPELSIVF
Description: [Determination of IC50 Values of Compounds in Receptor Binding Assay]
• Human CCR3-transformed K562 cells were used. The cloned CCR3 cDNA was constructed with pcDNA3 vector and transfected into a IC562 cell line. The human CCR3-transformed K562 cells were maintained in RPMI-1640 (Cat.#22400-089, Life Technologies) supplemented with 10% FCS (Cat.#A-1115-L, Hyclone), 55 μM 2-mercaptoethanol (Cat.#21985-023, Life Technologies), 1 mM sodium pyruvate (Cat.#11360-070, Life Technologies), 100 units/ml of penicillin G and 100 μg/ml of streptomycin (Cat.#15140-122, Life Technologies), and 0.4 mg/ml of Geneticin (Cat.#10131-035, Life Technologies)(hereinafter called “culture medium”). Before the receptor binding assay, cells were pretreated with 5 mM sodium butyrate (Cat.#193-01522, Wako)-containing the culture medium (2×10^5 cells/ml) for 20-24 hours to increase the expression of CCR3. (2) Receptor Binding Assay (RBA) • Butyrate-pretreated cells, suspended in binding buffer (25 mM HEPES pH 7.6, 1 mM CaCl2, 5 mM MgCl2, 0.5% BSA, 0.1% NaN3) at a cell density of 2×10^6 cells/ml, were added into 60 μl/well in the 96-well round bottom polypropylene plate (Cat.#3365, Costar). Compounds, diluted with the binding buffer (4-times higher concentration of the final concentration), were added into 30 μl/well in the polypropylene plate. [^125I]-labeled human eotaxin (Cat.#IM290, Amersham Pharmacia Biotech), diluted with the binding buffer at the concentration of 0.4 nM (final concentration; 0.1 nM), was added into 30 μl/well in the polypropylene plate. Total 120 μl/well of binding reaction mixture (60 μl/well of cell suspension, 30 μl/well of compound solution, and 30 μl/well of [^125I]-labeled eotaxin) were incubated in the polypropylene plate for 1 hour at room temperature after the incubation, 100 μl/well of the reaction mixture was transferred to a filtration plate (Cat.#MAFB-N0B, Millipore), and washed with the washing buffer (25 mM HEPES pH 7.6, 1 mM CaCl2, 5 mM MgCl2, 0.5% BSA, 0.1% NaN3, 0.5 M NaCl) twice. The 96-well filtration plate was pretreated with 100 μl/well of 0.5% polyethylenimine (Cat.#P-3143, Sigma) for 2-4 hours at room temperature and washed with the washing buffer twice before use. The non-specific binding was determined by parallel incubation in the presence of 500 nM of non-labeled eotaxin (Cat.#23209, Genzyme Techne). The radioactivities remained on the filter were measured by liquid scintillation counter (TopCount™, Packard) after an addition of 45 μl/well of scintillant (Microscint20, Cat.#6013621, Packard). The inhibition percent at each concentration of compound was calculated, and IC50 values were determined from the inhibition curve. [Determination of IC50 Values of Compounds in Calcium Mobilization Assay] (IC50 Ca2+) (1) Cell • Human CCR3-transformed K562 cells were used. The human CCR3-transformed K562 cells were maintained in RPMI-1640 supplemented with 10% FCS, 55 μM 2-mercaptoethanol (Cat.#21985-023, Life Technologies), 1 mM sodium pyruvate, 100 units/ml of penicillin G and 100 μg/ml of streptomycin and 0.4 mg/ml of Geneticin. Before the calcium mobilization assay, cells were pretreated with 5 mM sodium butyrate-containing the culture medium (2×10^5 cells/ml) for 20-24 hours to increase the expression of CCR3. (2) Calcium Mobilization Assay • Butyrate-pretreated cells were loaded with Fluo-3AM (Cat.#F-1242, Molecular Probes) in loading buffer (Hanks' solution Cat.#05906 Nissui, 20 mM HEPES pH 7.6, 0.1% BSA, 1 mM probenecid Cat.#P-8761 Sigma, 1 μM Fluo-3AM, 0.01% pluronic F-127 Cat.#P-6866 Molecular Probes) at a cell density of 1×10^7 cells/ml. Then, cells were washed with calcium assay buffer (Hanks' solution Cat.#05906 Nissui, 20 mM HEPES pH 7.6, 0.1% BSA, 1 mM Probenecid Cat.#P-8761 Sigma). The cell suspension (3.3×10^6 cells/ml) was added into 60 μl/well in the 96-well clear bottom black plate (Cat.#3904, Costar). […]

Human CCR3 [2] = biological target: T1, Human CCR3; experiment: Calcium mobilization assay, eotaxin-stimulated; type: cell-based; details: human CCR3-transformed K562 cells, 10 nM eotaxin; compounds of about 40 to 90% purity; read-out: Activity grade Ca2+ (IC50 class)
Description: • Human CCR3-transformed K562 cells were used. The cloned CCR3 cDNA was constructed with pcDNA3 vector and transfected into a IC562 cell line. The human CCR3-transformed K562 cells were maintained in RPMI-1640 (Cat.#22400-089, Life Technologies) supplemented with 10% FCS (Cat.#A-1115-L, Hyclone), 55 μM 2-mercaptoethanol (Cat.#21985-023, Life Technologies), 1 mM sodium pyruvate (Cat.#11360-070, Life Technologies), 100 units/ml of penicillin G and 100 μg/ml of streptomycin (Cat.#15140-122, Life Technologies), and 0.4 mg/ml of Geneticin (Cat.#10131-035, Life Technologies)(hereinafter called “culture medium”). Before the receptor binding assay, cells were pretreated with 5 mM sodium butyrate (Cat.#193-01522, Wako)-containing the culture medium (2×10^5 cells/ml) for 20-24 hours to increase the expression of CCR3. (2) Receptor Binding Assay (RBA) • Butyrate-pretreated cells, suspended in binding buffer (25 mM HEPES pH 7.6, 1 mM CaCl2, 5 mM MgCl2, 0.5% BSA, 0.1% NaN3) at a cell density of 2×10^6 cells/ml, were added into 60 μl/well in the 96-well round bottom polypropylene plate (Cat.#3365, Costar). Compounds, diluted with the binding buffer (4-times higher concentration of the final concentration), were added into 30 μl/well in the polypropylene plate. [^125I]-labeled human eotaxin (Cat.#IM290, Amersham Pharmacia Biotech), diluted with the binding buffer at the concentration of 0.4 nM (final concentration; 0.1 nM), was added into 30 μl/well in the polypropylene plate. Total 120 μl/well of binding reaction mixture (60 μl/well of cell suspension, 30 μl/well of compound solution, and 30 μl/well of [^125I]-labeled eotaxin) were incubated in the polypropylene plate for 1 hour at room temperature after the incubation, 100 μl/well of the reaction mixture was transferred to a filtration plate (Cat.#MAFB-N0B, Millipore), and washed with the washing buffer (25 mM HEPES pH 7.6, 1 mM CaCl2, 5 mM MgCl2, 0.5% BSA, 0.1% NaN3, 0.5 M NaCl) twice. The 96-well filtration plate was pretreated with 100 μl/well of 0.5% polyethylenimine (Cat.#P-3143, Sigma) for 2-4 hours at room temperature and washed with the washing buffer twice before use. The non-specific binding was determined by parallel incubation in the presence of 500 nM of non-labeled eotaxin (Cat.#23209, Genzyme Techne). The radioactivities remained on the filter were measured by liquid scintillation counter (TopCount™, Packard) after an addition of 45 μl/well of scintillant (Microscint20, Cat.#6013621, Packard). The inhibition percent at each concentration of compound was calculated, and IC50 values were determined from the inhibition curve. [Determination of IC50 Values of Compounds in Calcium Mobilization Assay] (IC50 Ca2+) (1) Cell • Human CCR3-transformed K562 cells were used. The human CCR3-transformed K562 cells were maintained in RPMI-1640 supplemented with 10% FCS, 55 μM 2-mercaptoethanol (Cat.#21985-023, Life Technologies), 1 mM sodium pyruvate, 100 units/ml of penicillin G and 100 μg/ml of streptomycin and 0.4 mg/ml of Geneticin. Before the calcium mobilization assay, cells were pretreated with 5 mM sodium butyrate-containing the culture medium (2×10^5 cells/ml) for 20-24 hours to increase the expression of CCR3. (2) Calcium Mobilization Assay • Butyrate-pretreated cells were loaded with Fluo-3AM (Cat.#F-1242, Molecular Probes) in loading buffer (Hanks' solution Cat.#05906 Nissui, 20 mM HEPES pH 7.6, 0.1% BSA, 1 mM probenecid Cat.#P-8761 Sigma, 1 μM Fluo-3AM, 0.01% pluronic F-127 Cat.#P-6866 Molecular Probes) at a cell density of 1×10^7 cells/ml. Then, cells were washed with calcium assay buffer (Hanks' solution Cat.#05906 Nissui, 20 mM HEPES pH 7.6, 0.1% BSA, 1 mM Probenecid Cat.#P-8761 Sigma). The cell suspension (3.3×10^6 cells/ml) was added into 60 μl/well in the 96-well clear bottom black plate (Cat.#3904, Costar). Compounds, diluted (5-times concentration of the final concentration) with the calcium assay buffer, were added into 20 μl/well in the plate 10 minutes before assay. […]

| melting point | IC50 (Human CCR3 [1]) | IC50 (Human CCR3 [2]) | Compound |
| --- | --- | --- | --- |
| 226 °C | 1 to 10 µM |  | CN(C)c1ccc(NS(=O)(=O)c2cc([N+](=O)[O-])ccc2Oc2cc(Cl)cc(Cl)c2)cc1 [Example 4-25] |
|  | < 1 µM |  | Cc1cc(C)cc(Nc2ccc([N+](=O)[O-])cc2S(=O)(=O)N2CCNCC2)c1 [Example 3-1, N-(3,5-dimethyl-phenyl)-4-nitro-2-(1-piperazinylsulfonyl)aniline dihydrochloride] |
| 156 to 158 °C | < 1 µM |  | Cc1cc(C)cc(Oc2ccc([N+](=O)[O-])cc2S(=O)(=O)N2CCC(N3CCCC3)CC2)c1 [Example 4-11] |
| 242 to 244 °C | < 1 µM |  | Cc1cccc(Oc2ccc([N+](=O)[O-])cc2S(=O)(=O)N2CCNCC2)c1.Cl [Example 1-17] |
| 123 to 124 °C | > 10 µM |  | Cc1cc(C)cc(Oc2ccc([N+](=O)[O-])cc2S(=O)(=O)N2CCN(Cc3ccccc3)CC2)c1 [Example 4-9] |
| 227 to 229 °C | 1 to 10 µM |  | Cl.O=[N+]([O-])c1ccc(Oc2cccc(F)c2)c(S(=O)(=O)N2CCNCC2)c1 [Example 1-15] |
| 167 to 168 °C | > 10 µM |  | O=[N+]([O-])c1ccc(Oc2ccc(Cl)c(Cl)c2)c(S(=O)(=O)N2CCNCC2)c1 [Example 1-83] |
| 161 °C | < 1 µM |  | N#Cc1ccc(Oc2cc(Cl)cc(Cl)c2)c(S(=O)(=O)N2CCN3CCCC3C2)c1 (centres unmarked) [Example 13-12] |
| 248 °C |  | < 1 µM | Cc1cc(Oc2ccc([N+](=O)[O-])cc2S(=O)(=O)N2CCNCC2)cc(C)c1C.Cl [Example 1-69] |
| 148 to 151 °C |  | < 1 µM | NCC1CCN(S(=O)(=O)c2cc([N+](=O)[O-])ccc2Oc2cc(Cl)cc(Cl)c2)CC1 [Example 1-97] |
| 167 to 169 °C |  | < 1 µM | CN1CCC(N2CCN(S(=O)(=O)c3cc([N+](=O)[O-])ccc3Oc3cc(Cl)cc(Cl)c3)CC2)CC1 [Example 4-32] |
| 118 to 120 °C | 1 to 10 µM |  | O=[N+]([O-])c1ccc(Oc2ccccc2F)c(S(=O)(=O)N2CCNCC2)c1 [Example 1-14] |
| 168 °C |  | < 1 µM | Cl.O=[N+]([O-])c1ccc(Oc2ccc3c(c2)CCCC3)c(S(=O)(=O)N2CCNCC2)c1 [Example 1-72] |
| 188 to 192 °C | > 10 µM |  | Cc1ccc(Oc2ccc([N+](=O)[O-])cc2S(=O)(=O)N2CCNCC2)cc1.Cl [Example 1-16] |
| 204 °C |  | < 1 µM | Cc1cc(C)cc(Oc2cccc(F)c2S(=O)(=O)N2CCNCC2)c1.Cl [Example 1-58] |
| 235 to 237 °C |  | < 1 µM | Cl.O=[N+]([O-])c1ccc(Sc2cccc(Cl)c2)c(S(=O)(=O)N2CCNCC2)c1 [Example 2-17] |
| 210 to 212 °C | > 10 µM |  | Cc1cc(C)cc(Oc2ccc([N+](=O)[O-])cc2S(=O)(=O)N2CCN(C=O)CC2)c1 [Example 4-10] |
| 160 to 162 °C |  | < 1 µM | CCOC(=O)CCN1CCN(S(=O)(=O)c2cc([N+](=O)[O-])ccc2Oc2cc(Cl)cc(Cl)c2)CC1 [Example 4-37] |
